Target: T1, Glutamate receptor 2 (Homo sapiens, UniProt P42262)
Assay: Positive allosteric modulation of human GluA2 receptor flip isoform assessed as increase in glutamate-induced calcium flux at 125 uM measured at time interval of 5 mins in presence of saturating glycine by calcium dye-based fluorescence assay relative to glutamate
Type: single protein
Conditions: not given

T1 sequence (P42262 whole entry, canonical isoform): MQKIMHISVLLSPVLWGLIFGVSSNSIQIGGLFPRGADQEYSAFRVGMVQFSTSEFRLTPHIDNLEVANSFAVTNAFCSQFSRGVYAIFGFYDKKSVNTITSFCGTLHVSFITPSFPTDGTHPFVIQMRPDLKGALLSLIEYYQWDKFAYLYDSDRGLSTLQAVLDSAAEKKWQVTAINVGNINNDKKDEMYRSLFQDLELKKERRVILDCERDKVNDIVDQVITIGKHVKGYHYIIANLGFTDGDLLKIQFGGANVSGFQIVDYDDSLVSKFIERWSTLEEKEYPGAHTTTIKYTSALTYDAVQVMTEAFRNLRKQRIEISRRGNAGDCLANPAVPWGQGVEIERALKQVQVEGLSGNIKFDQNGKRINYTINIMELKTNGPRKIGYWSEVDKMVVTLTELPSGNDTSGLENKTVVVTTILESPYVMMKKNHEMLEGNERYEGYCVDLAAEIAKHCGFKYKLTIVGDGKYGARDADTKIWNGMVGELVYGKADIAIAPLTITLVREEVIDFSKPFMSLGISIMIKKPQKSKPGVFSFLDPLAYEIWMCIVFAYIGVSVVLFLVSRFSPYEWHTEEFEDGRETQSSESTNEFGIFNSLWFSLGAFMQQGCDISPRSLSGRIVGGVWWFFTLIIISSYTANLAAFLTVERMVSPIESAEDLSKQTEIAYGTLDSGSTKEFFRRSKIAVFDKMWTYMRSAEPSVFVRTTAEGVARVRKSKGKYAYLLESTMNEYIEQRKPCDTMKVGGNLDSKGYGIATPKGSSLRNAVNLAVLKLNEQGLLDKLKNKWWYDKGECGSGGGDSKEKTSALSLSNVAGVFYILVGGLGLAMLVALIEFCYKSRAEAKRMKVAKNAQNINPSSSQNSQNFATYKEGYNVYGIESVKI

Emax at 125 µM	SMILES
51%	COc1cc([C@@H]2C[C@H]2C#N)n2c(=O)cc(Cn3nc(C(F)(F)F)cc3Cl)nc2c1
51%	Cc1sc2nc(Cn3nc(C(F)(F)F)cc3Cl)cc(=O)n2c1C1CC1
90%	N#C[C@@H]1C[C@H]1c1cccc2nc(Cn3nc(C(F)(F)F)cc3Cl)cc(=O)n12
28%	Cc1sc2nc(Cn3nc(C(F)(F)F)cc3Cl)cc(=O)n2c1-c1cncnc1

System: MDR1 (human)
Assay: Efflux ratio of permeability from basolateral to apical over apical to basolateral side in MDCK cells expressing human MDR1
Type: ADME, cell-based, Canis lupus familiaris
Conditions: dog

efflux ratio	SMILES
2.2	COc1cc([C@@H]2C[C@H]2C#N)n2c(=O)cc(Cn3nc(C(F)(F)F)cc3Cl)nc2c1

Target: T1, Glutamate receptor 2
Assay: Positive allosteric modulation of human GluA2 receptor flop isoform assessed as increase in glutamate-induced calcium flux at 125 uM measured at time interval of 5 mins in presence of saturating glycine by calcium dye-based fluorescence assay relative to glutamate
Type: Functional, single protein
Conditions: not given

Emax at 125 µM	SMILES
67%	COc1cc([C@@H]2C[C@H]2C#N)n2c(=O)cc(Cn3nc(C(F)(F)F)cc3Cl)nc2c1
32%	Cc1sc2nc(Cn3nc(C(F)(F)F)cc3Cl)cc(=O)n2c1C1CC1
90%	N#C[C@@H]1C[C@H]1c1cccc2nc(Cn3nc(C(F)(F)F)cc3Cl)cc(=O)n12
9%	Cc1sc2nc(Cn3nc(C(F)(F)F)cc3Cl)cc(=O)n2c1-c1cncnc1

Target: T1, Glutamate receptor 2
Assay: Positive allosteric modulation of human GluA2 receptor flop isoform assessed as increase in glutamate-induced calcium flux measured at time interval of 5 mins in presence of saturating glycine by calcium dye-based fluorescence assay
Type: Functional, single protein
Conditions: not given

EC50	SMILES
2200 nM	COc1cc([C@@H]2C[C@H]2C#N)n2c(=O)cc(Cn3nc(C(F)(F)F)cc3Cl)nc2c1
410 nM	N#C[C@@H]1C[C@H]1c1cccc2nc(Cn3nc(C(F)(F)F)cc3Cl)cc(=O)n12
1200 nM	Cc1sc2nc(Cn3nc(C(F)(F)F)cc3Cl)cc(=O)n2c1-c1cncnc1

Target: T2, Glutamate NMDA receptor; GRIN1/GRIN2A (Homo sapiens, UniProt Q05586+Q12879)
Assay: Positive allosteric modulation of GluN1/GluN2A receptor (unknown origin) expressed in CHO cells assessed as increase in glutamate-induced calcium flux measured at time interval of 5 mins in presence of saturating glycine by calcium dye-based fluorescence assay
Type: cell-based
Conditions: not given

EC50	SMILES
130 nM	COc1cc([C@@H]2C[C@H]2C#N)n2c(=O)cc(Cn3nc(C(F)(F)F)cc3Cl)nc2c1
270 nM	Cc1sc2nc(Cn3nc(C(F)(F)F)cc3Cl)cc(=O)n2c1C1CC1
24 nM	N#C[C@@H]1C[C@H]1c1cccc2nc(Cn3nc(C(F)(F)F)cc3Cl)cc(=O)n12
1400 nM	Cc1sc2nc(Cn3nc(C(F)(F)F)cc3Cl)cc(=O)n2c1-c1cncnc1

Target: T2, Glutamate NMDA receptor; GRIN1/GRIN2A
Assay: Positive allosteric modulation of GluN1/GluN2A receptor (unknown origin) expressed in CHO cells assessed as increase in glutamate-induced calcium flux at 125 uM measured at time interval of 5 mins in presence of saturating glycine by calcium dye-based fluorescence assay relative to glutamate
Type: cell-based
Conditions: not given

Emax	SMILES
140%	COc1cc([C@@H]2C[C@H]2C#N)n2c(=O)cc(Cn3nc(C(F)(F)F)cc3Cl)nc2c1
116%	Cc1sc2nc(Cn3nc(C(F)(F)F)cc3Cl)cc(=O)n2c1C1CC1
148%	N#C[C@@H]1C[C@H]1c1cccc2nc(Cn3nc(C(F)(F)F)cc3Cl)cc(=O)n12
88%	Cc1sc2nc(Cn3nc(C(F)(F)F)cc3Cl)cc(=O)n2c1-c1cncnc1

Target: T1, Glutamate receptor 2
Assay: Positive allosteric modulation of human GluA2 receptor flip isoform assessed as increase in glutamate-induced calcium flux measured at time interval of 5 mins in presence of saturating glycine by calcium dye-based fluorescence assay
Type: Functional, single protein
Conditions: not given

EC50	SMILES
6700 nM	COc1cc([C@@H]2C[C@H]2C#N)n2c(=O)cc(Cn3nc(C(F)(F)F)cc3Cl)nc2c1
810 nM	N#C[C@@H]1C[C@H]1c1cccc2nc(Cn3nc(C(F)(F)F)cc3Cl)cc(=O)n12
9600 nM	Cc1sc2nc(Cn3nc(C(F)(F)F)cc3Cl)cc(=O)n2c1-c1cncnc1

Reference: ChEMBL document CHEMBL3870360, “GluN2A-Selective Pyridopyrimidinone Series of NMDAR Positive Allosteric Modulators with an Improved in Vivo Profile” (ACS Med Chem Lett, 2017)
